Measured values: patent US20240279240A1, “HETEROCYCLIC DERIVATIVES AS JANUS KINASE INHIBITORS” (CHIESI FARMACEUTICI S.P.A., priority 2021, published 2024)

Experiments:
[1] = target: JAK 1 (Homo sapiens, UniProt P23458); assay: Biochemical potency on JAK1, TR-FRET LANCE Ultra kinase assay (examples 1-99); conditions: ATP at Km (20 μM), read-out: JAK1 inhibitory activity (pIC50 class) (converted)
Method in brief: (§1)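 LANCE Ultra TR-FRET with ULight-JAK-1 (Tyr1023) peptide at 30/50/20/10 nM and ATP (~Km) at 20/0.7/0.2/12 μM for JAK1/JAK2/JAK3/TYK2; enzymes 0.15/0.083/0.025/0.144 ng/μL. 1.5 h at r.t., EDTA stop, Eu-anti-phosphotyrosine read. 11-point 5-fold series from 20 μM; IC50 by variable-slope fit.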

[2] = target: JAK 2 (Homo sapiens, UniProt O60674); assay: Biochemical potency on JAK2, TR-FRET LANCE Ultra kinase assay (examples 1-99); conditions: ATP at Km (0.7 μM), read-out: JAK2 inhibitory activity (pIC50 class) (converted)
Method in brief: as §1

[3] = target: T1, JAK 3 (Homo sapiens, UniProt P52333); assay: Biochemical potency on JAK3, TR-FRET LANCE Ultra kinase assay (examples 1-99); conditions: ATP at Km (0.2 μM), read-out: JAK3 inhibitory activity (pIC50 class) (converted)
T1 sequence (P52333 1-1124): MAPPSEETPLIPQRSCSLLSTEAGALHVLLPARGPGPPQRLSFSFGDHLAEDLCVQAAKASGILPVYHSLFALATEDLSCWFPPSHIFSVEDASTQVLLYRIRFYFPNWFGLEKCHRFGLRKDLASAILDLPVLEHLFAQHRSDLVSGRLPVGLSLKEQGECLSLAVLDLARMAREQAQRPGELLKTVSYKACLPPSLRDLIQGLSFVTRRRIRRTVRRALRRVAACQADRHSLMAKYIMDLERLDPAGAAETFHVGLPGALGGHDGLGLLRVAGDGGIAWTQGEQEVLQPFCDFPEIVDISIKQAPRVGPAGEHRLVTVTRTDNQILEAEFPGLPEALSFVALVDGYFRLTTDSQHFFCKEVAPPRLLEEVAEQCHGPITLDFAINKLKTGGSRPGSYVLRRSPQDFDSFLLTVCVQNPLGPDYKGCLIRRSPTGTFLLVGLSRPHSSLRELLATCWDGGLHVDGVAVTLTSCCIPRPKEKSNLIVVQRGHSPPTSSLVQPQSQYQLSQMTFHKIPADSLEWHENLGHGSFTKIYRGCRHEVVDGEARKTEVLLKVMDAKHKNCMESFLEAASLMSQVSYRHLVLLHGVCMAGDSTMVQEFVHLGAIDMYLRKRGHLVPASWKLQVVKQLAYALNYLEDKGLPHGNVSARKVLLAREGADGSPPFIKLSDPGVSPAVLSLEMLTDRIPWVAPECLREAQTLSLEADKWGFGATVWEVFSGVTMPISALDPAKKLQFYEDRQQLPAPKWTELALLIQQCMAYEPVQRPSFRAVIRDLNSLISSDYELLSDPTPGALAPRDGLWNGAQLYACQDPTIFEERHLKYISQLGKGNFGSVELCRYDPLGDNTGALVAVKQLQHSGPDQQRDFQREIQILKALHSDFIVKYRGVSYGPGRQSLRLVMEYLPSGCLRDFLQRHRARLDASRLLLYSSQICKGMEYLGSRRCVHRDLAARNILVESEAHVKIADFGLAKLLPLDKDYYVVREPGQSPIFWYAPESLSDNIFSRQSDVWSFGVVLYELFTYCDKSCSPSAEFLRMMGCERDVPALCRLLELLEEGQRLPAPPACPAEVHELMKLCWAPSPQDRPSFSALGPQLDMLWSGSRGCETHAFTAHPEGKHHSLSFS
Method in brief: as §1

[4] = target: TYK2 (Homo sapiens, UniProt P29597); assay: Biochemical potency on Tyk2, TR-FRET LANCE Ultra kinase assay (examples 1-99); conditions: ATP at Km (12 μM), read-out: Tyk2 inhibitory activity (pIC50 class) (converted)
Method in brief: as §1

JAK 1, sequence (P23458 whole entry): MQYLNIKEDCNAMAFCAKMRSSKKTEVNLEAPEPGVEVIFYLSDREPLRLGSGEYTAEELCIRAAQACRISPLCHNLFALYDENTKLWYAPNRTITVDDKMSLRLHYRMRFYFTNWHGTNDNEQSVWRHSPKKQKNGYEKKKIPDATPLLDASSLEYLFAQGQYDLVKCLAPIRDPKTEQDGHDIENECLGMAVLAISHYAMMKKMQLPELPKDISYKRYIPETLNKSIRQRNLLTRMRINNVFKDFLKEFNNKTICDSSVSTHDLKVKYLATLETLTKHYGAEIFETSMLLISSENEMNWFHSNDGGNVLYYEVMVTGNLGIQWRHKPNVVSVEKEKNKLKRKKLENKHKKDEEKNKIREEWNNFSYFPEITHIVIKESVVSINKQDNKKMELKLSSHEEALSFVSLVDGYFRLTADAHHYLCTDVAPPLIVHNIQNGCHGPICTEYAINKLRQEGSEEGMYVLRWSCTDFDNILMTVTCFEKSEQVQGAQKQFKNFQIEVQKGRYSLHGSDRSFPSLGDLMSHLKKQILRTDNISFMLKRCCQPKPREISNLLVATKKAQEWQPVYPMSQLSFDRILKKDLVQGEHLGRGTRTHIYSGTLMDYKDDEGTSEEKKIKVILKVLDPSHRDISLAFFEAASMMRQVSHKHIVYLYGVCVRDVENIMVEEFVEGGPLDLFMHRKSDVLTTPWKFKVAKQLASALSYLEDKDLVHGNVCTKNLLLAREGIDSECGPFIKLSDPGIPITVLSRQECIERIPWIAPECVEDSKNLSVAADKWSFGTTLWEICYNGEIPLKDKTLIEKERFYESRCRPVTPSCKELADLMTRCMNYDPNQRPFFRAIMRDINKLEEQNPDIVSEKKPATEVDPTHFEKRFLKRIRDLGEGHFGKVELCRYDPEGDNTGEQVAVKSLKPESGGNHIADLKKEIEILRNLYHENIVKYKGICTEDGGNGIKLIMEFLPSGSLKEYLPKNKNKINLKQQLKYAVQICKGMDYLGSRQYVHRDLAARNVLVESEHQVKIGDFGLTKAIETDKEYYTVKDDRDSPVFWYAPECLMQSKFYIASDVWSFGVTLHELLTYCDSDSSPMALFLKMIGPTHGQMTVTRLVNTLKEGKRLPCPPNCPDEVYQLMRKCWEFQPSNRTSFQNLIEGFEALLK
TYK2, sequence (P29597 whole entry): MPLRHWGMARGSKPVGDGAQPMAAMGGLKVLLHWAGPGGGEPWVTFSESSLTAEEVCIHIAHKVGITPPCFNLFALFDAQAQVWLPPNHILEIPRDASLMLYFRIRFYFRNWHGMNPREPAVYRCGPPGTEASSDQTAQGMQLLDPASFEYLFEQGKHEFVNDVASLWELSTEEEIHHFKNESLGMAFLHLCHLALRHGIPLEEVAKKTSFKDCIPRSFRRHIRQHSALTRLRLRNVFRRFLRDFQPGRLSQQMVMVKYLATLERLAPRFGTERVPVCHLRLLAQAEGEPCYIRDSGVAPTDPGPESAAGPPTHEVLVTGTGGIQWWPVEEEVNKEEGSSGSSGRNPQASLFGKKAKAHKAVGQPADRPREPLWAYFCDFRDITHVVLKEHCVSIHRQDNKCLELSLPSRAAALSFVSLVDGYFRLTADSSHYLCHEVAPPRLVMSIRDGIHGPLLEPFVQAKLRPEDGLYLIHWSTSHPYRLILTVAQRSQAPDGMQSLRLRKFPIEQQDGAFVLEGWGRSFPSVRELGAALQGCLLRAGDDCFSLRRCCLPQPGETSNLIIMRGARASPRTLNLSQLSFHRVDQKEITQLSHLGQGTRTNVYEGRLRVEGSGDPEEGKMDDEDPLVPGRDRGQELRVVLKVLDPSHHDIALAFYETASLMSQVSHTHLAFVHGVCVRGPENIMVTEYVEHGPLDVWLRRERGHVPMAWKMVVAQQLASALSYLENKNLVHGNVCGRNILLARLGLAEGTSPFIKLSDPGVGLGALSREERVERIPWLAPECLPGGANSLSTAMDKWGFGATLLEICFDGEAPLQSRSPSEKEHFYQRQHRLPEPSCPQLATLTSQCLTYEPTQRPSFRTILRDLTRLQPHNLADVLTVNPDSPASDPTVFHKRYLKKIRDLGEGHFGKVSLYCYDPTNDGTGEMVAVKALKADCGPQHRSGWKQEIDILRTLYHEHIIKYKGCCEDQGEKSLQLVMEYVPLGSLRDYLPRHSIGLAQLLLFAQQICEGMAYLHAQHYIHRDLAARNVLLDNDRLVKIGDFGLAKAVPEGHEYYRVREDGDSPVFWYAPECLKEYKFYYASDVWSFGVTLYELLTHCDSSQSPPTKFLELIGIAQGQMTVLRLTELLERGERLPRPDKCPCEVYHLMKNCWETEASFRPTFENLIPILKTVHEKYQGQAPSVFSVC
JAK 2, sequence (O60674 whole entry): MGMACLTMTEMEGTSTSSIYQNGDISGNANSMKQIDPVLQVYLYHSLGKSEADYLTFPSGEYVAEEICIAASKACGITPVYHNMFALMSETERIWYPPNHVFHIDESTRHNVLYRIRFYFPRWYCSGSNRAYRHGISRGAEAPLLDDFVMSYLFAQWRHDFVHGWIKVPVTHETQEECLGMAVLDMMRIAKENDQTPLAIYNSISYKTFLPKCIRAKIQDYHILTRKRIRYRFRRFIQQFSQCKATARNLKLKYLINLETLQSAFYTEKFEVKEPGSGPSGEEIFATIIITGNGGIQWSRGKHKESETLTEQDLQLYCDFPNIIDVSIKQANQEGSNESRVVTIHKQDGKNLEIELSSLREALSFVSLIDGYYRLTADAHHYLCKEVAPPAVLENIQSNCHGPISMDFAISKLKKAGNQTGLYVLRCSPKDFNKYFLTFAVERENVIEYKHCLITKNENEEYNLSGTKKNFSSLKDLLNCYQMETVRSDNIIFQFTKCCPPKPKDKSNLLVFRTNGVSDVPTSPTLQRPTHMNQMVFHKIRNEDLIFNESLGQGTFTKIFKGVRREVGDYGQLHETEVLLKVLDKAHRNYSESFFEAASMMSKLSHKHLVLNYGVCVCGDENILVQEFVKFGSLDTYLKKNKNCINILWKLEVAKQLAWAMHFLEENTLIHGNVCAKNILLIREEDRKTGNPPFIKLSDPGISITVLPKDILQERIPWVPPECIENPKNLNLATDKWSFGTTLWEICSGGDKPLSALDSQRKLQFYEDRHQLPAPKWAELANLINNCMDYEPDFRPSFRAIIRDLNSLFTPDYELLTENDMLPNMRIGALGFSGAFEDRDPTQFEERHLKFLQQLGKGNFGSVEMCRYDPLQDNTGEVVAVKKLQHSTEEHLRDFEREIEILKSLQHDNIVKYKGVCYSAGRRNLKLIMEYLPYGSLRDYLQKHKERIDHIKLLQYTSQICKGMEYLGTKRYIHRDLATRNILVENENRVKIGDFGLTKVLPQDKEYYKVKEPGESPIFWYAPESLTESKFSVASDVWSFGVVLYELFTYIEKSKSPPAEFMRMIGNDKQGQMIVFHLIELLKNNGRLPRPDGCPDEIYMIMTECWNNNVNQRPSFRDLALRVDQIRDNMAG

IC50 [1]	IC50 [2]	IC50 [3]	IC50 [4]	SMILES
5.01 to 50.1 nM	5.01 to 50.1 nM	5.01 to 50.1 nM	> 50.1 nM	COc1ccc(S(C)(=O)=O)cc1-n1nc(C(=O)NCCCN2CCOCC2)c2cnc(-c3cnn4cccnc34)cc21 [Example 84, 1-(2-methoxy-5-(methylsulfonyl)phenyl)-N-(3-morpholinopropyl)-6-(pyrazolo[1,5-a]pyrimidin-3-yl)-1H-pyrazolo[4,3-c]pyridine-3-carboxamide]
> 50.1 nM	≤ 5.01 nM	5.01 to 50.1 nM	> 50.1 nM	CNc1nn(-c2cc(S(C)(=O)=O)ccc2OC)c2cc(-c3cnn4cccnc34)ncc12 [Example 85, 1-(2-methoxy-5-(methylsulfonyl)phenyl)-N-methyl-6-(pyrazolo[1,5-a]pyrimidin-3-yl)-1H-pyrazolo[4,3-c]pyridin-3-amine]
> 50.1 nM	5.01 to 50.1 nM	5.01 to 50.1 nM	> 50.1 nM	COc1ccc(NS(C)(=O)=O)cc1-n1nc(NCCN(C)C)c2cnc(-c3cnn4cccnc34)cc21 [Example 86, N-(3-(3-((2-(dimethylamino)ethyl)amino)-6-(pyrazolo[1,5-a]pyrimidin-3-yl)-1H-pyrazolo[4,3-c]pyridin-1-yl)-4-methoxyphenyl)methanesulfonamide]
5.01 to 50.1 nM	≤ 5.01 nM	5.01 to 50.1 nM	5.01 to 50.1 nM	CNCC(=O)Nc1nn(-c2cc(Cl)ccc2OC)c2cc(-c3cnn4cccnc34)ncc12 [Example 87, N-(1-(5-chloro-2-methoxyphenyl)-6-(pyrazolo[1,5-a]pyrimidin-3-yl)-1H-pyrazolo[4,3-c]pyridin-3-yl)-2-(methylamino)acetamide]
≤ 5.01 nM	5.01 to 50.1 nM	5.01 to 50.1 nM	5.01 to 50.1 nM	COc1cc(O)c(F)cc1-n1nc(C(=O)NCCCN(C)C)c2cnc(-c3cnn4cccnc34)cc21 [Example 88, N-(3-(dimethylamino)propyl)-1-(5-fluoro-4-hydroxy-2-methoxyphenyl)-6-(pyrazolo[1,5-a]pyrimidin-3-yl)-1H-pyrazolo[4,3-c]pyridine-3-carboxamide]
5.01 to 50.1 nM	5.01 to 50.1 nM	> 50.1 nM	> 50.1 nM	CNCc1nn(-c2cc(S(C)(=O)=O)ccc2OC)c2cc(-c3cnn4cccnc34)ncc12 [Example 89, 1-(1-(2-Methoxy-5-(methylsulfonyl)phenyl)-6-(pyrazolo[1,5-a]pyrimidin-3-yl)-1H-pyrazolo[4,3-c]pyridin-3-yl)-N-methylmethanamine]
5.01 to 50.1 nM	≤ 5.01 nM	≤ 5.01 nM	5.01 to 50.1 nM	COc1ccc(F)cc1-n1nc(C)c2cnc(Nc3ncc[nH]c3=O)cc21 [Example 90, 3-((1-(5-Fluoro-2-methoxyphenyl)-3-methyl-1H-pyrazolo[4,3-c]pyridin-6-yl)amino)pyrazin-2(1H)-one]
5.01 to 50.1 nM	≤ 5.01 nM	≤ 5.01 nM	5.01 to 50.1 nM	COc1ccc(C(F)F)cc1-n1nc(C)c2cnc(Nc3ncc[nH]c3=O)cc21 [Example 91, 3-((1-(5-(difluoromethyl)-2-methoxyphenyl)-3-methyl-1H-pyrazolo[4,3-c]pyridin-6-yl)amino)pyrazin-2(1H)-one]
5.01 to 50.1 nM	≤ 5.01 nM	≤ 5.01 nM	> 50.1 nM	COc1ccc(S(=O)(=O)NCCO)cc1-n1nc(C)c2cnc(Nc3ncc[nH]c3=O)cc21 [Example 92, N-(2-hydroxyethyl)-4-methoxy-3-(3-methyl-6-((3-oxo-3,4-dihydropyrazin-2-yl)amino)-1H-pyrazolo[4,3-c]pyridin-1-yl)benzenesulfonamide]
5.01 to 50.1 nM	≤ 5.01 nM	≤ 5.01 nM	5.01 to 50.1 nM	COCCSc1ccc(OC(F)F)c(-n2nc(C)c3cnc(Nc4ncc[nH]c4=O)cc32)c1 [Example 93, 3-((1-(2-(difluoromethoxy)-5-((2-methoxyethyl)thio)phenyl)-3-methyl-1H-pyrazolo[4,3-c]pyridin-6-yl)amino)pyrazin-2(1H)-one]
≤ 5.01 nM	≤ 5.01 nM	≤ 5.01 nM	5.01 to 50.1 nM	Cc1nn(-c2cc(S(C)(=O)=O)ccc2OC(F)F)c2cc(Nc3ncc[nH]c3=O)ncc12 [Example 94, 3-((1-(2-(difluoromethoxy)-5-(methylsulfonyl)phenyl)-3-methyl-1H-pyrazolo[4,3-c]pyridin-6-yl)amino)pyrazin-2(1H)-one]
5.01 to 50.1 nM	≤ 5.01 nM	≤ 5.01 nM	5.01 to 50.1 nM	COCCS(=O)(=O)c1ccc(OC(F)F)c(-n2nc(C)c3cnc(Nc4ncc[nH]c4=O)cc32)c1 [Example 95, 3-((1-(2-(difluoromethoxy)-5-((2-methoxyethyl)sulfonyl)phenyl)-3-methyl-1H-pyrazolo[4,3-c]pyridin-6-yl)amino)pyrazin-2(1H)-one]
5.01 to 50.1 nM	5.01 to 50.1 nM	5.01 to 50.1 nM	5.01 to 50.1 nM	COc1ccc(F)cc1-n1nc(C(=O)NCCCN(C)C)c2cnc(Nc3ncc[nH]c3=O)cc21 [Example 96, N-(3-(dimethylamino)propyl)-1-(5-fluoro-2-methoxyphenyl)-6-((3-oxo-3,4-dihydropyrazin-2-yl)amino)-1H-pyrazolo[4,3-c]pyridine-3-carboxamide]
5.01 to 50.1 nM	≤ 5.01 nM	≤ 5.01 nM	5.01 to 50.1 nM	COc1ccc(F)cc1-n1nc(NCCCN(C)C)c2cnc(Nc3ncc[nH]c3=O)cc21 [Example 97, 3-((3-((3-(dimethylamino)propyl)amino)-1-(5-fluoro-2-methoxyphenyl)-1H-pyrazolo[4,3-c]pyridin-6-yl)amino)pyrazin-2(1H)-one]
5.01 to 50.1 nM	5.01 to 50.1 nM	5.01 to 50.1 nM	5.01 to 50.1 nM	COc1ccc(C(F)F)cc1-n1nc(NCCN(C)C)c2cnc(Nc3ncc[nH]c3=O)cc21 [Example 98, 3-((1-(5-(difluoromethyl)-2-methoxyphenyl)-3-((2-(dimethylamino)ethyl)amino)-1H-pyrazolo[4,3-c]pyridin-6-yl)amino)pyrazin-2(1H)-one]
≤ 5.01 nM	≤ 5.01 nM	≤ 5.01 nM	5.01 to 50.1 nM	Cc1nn(-c2cc(Cl)ccc2OC(F)F)c2cc(Nc3ncc[nH]c3=O)ncc12 [Example 99, 3-((1-(5-chloro-2-(difluoromethoxy)phenyl)-3-methyl-1H-pyrazolo[4,3-c]pyridin-6-yl)amino)pyrazin-2(1H)-one]
